Results on one compound are retold here after article PMC7194293, “Living on the Edge: Physiological and Kinetic Trade-Offs Shape Thermal Tolerance in Intertidal Crabs From Tropical to Sub-Antarctic South America” (Frontiers in Physiology, 2020).

Read-outs that look alike come from different tables or passages of the source.

Common to all, as to assay: NADH oxidation at […] nm, muscle homogenate supernatant
Assay [1] relates to T1, LDH (muscle lactate dehydrogenase).
T1 construct: native, not purified; supernatant of abdominal muscle homogenate, pooled crabs, Rio Grande, Brazil
It counts as biochemical, Armases rubripes. Conditions: 150 uM NADH, 80 mM imidazole-HCl pH 6.9, 15 °C (FRT); read-out: Km^Pyr / (mM) / FRT.

The test system of assay [2] is T2, LDH (muscle lactate dehydrogenase).
T2 construct: native, not purified; supernatant of abdominal muscle homogenate, pooled crabs, Pernambuco, Brazil
It is filed as biochemical, Ocypode quadrata. Conditions: 150 uM NADH, 80 mM imidazole-HCl pH 6.9, 26 °C (FRT); read-out: Km^Pyr / (mM) / FRT.

For assay [3], the system named is T1, LDH (muscle lactate dehydrogenase). It counts as biochemical, Neohelice granulata. Conditions: 150 uM NADH, 80 mM imidazole-HCl pH 6.9, 15 °C (FRT); read-out: Km^Pyr / (mM) / FRT.
The test system is the same in assay [4]. It is filed as biochemical, Leptuca uruguayensis. As to conditions: 150 uM NADH, 80 mM imidazole-HCl pH 6.9, 15 °C (FRT); read-out: Km^Pyr / (mM) / FRT.
The subject of assay [5] is T2, LDH (muscle lactate dehydrogenase). It counts as biochemical, Uca maracoani. Conditions: 150 uM NADH, 80 mM imidazole-HCl pH 6.9, 26 °C (FRT); read-out: Km^Pyr / (mM) / FRT.
Assay [6] deals with T3, LDH (muscle lactate dehydrogenase).
T3 construct: native, not purified; supernatant of abdominal muscle homogenate, pooled crabs, Ushuaia, Argentina
It is filed as biochemical, Acanthocyclus albatrossis. As to conditions: 150 uM NADH, 80 mM imidazole-HCl pH 6.9, 9 °C (FRT); read-out: Km^Pyr / (mM) / FRT.

Assay [7] concerns T2, LDH (muscle lactate dehydrogenase). It counts as biochemical, Goniopsis cruentata. As to conditions: 150 uM NADH, 80 mM imidazole-HCl pH 6.9, 26 °C (FRT); read-out: Km^Pyr / (mM) / FRT.
Assay [8] has the same test system. It is filed as biochemical, Aratus pisonii. Conditions: 150 uM NADH, 80 mM imidazole-HCl pH 6.9, 26 °C (FRT); read-out: Km^Pyr / (mM) / FRT.
Assay [9] shares this test system. It is filed as biochemical, Cardisoma guanhumi. As to conditions: 150 uM NADH, 80 mM imidazole-HCl pH 6.9, 26 °C (FRT); read-out: Km^Pyr / (mM) / FRT.
For assay [10] the test system is unchanged. It is filed as biochemical, Ucides cordatus. Conditions: 150 uM NADH, 80 mM imidazole-HCl pH 6.9, 26 °C (FRT); read-out: Km^Pyr / (mM) / FRT.
Assay [11] shares this test system. It counts as biochemical, Pachygrapsus transversus. Conditions: 150 uM NADH, 80 mM imidazole-HCl pH 6.9, 26 °C (FRT); read-out: Km^Pyr / (mM) / FRT.
The test system of assay [12] is T3, LDH (muscle lactate dehydrogenase). It is filed as biochemical, Halicarcinus planatus. As to conditions: 150 uM NADH, 80 mM imidazole-HCl pH 6.9, 9 °C (FRT); read-out: Km^Pyr / (mM) / FRT.

Regarding `CC(=O)C(=O)O` [pyruvate], the Km in assay [1] came to 0.15 ± 0.01 mM; in assay [2], 0.15 ± 0.02 mM; in assay [3], 0.32 ± 0.03 mM; in assay [4], 0.16 mM; in [5], 0.49 ± 0.05 mM; in [6], 0.3 mM. For the same compound, the Km in [7] is 0.1 mM; in assay [8], 0.11 mM; in assay [9], 0.17 ± 0.01 mM; in assay [10] it was 0.17 ± 0.01 mM; in assay [11] it was 0.2 ± 0.01 mM; in assay [12] it was 0.5 mM.
